Measurements: patent publication US20180028516A1, “METHODS AND DEVICES FOR THE TREATMENT OF OCULAR DISEASES IN HUMAN SUBJECTS” (CLEARSIDE BIOMEDICAL, INC., priority 2012, published 2018)

Tests used:
[1] = Ocular toxicokinetics of TA after suprachoroidal or intravitreal injection (Example 8); format: in vivo, pigmented rabbits; conditions: SCS, 2 mg TA, compared with intravitreal
Description: in this study, the total amount of triamcinolone acetonide (TA) delivered into live pigmented rabbit eyes when injected, into the suprachoroidal space using a hollow microneedle or into the vitreous using a standard 30 gauge needle was compared.
On Day 0, pigmented rabbits were injected with either intravitreal or bilateral suprachoroidal injections of 2 mg/100 μl TA Triesence® (TA; Alcon Labs). intravitreal injections were performed using a 30 g needle (Becton-Dickinson) and suprachoroidal injections were performed using a 33 g 750 μm microneedle. The residual amount of TA present in the syringe/needle assembly after injection was determined by RP-HPLC. Clinical observations, slit lamp biomicroscopy with McDonald-Shadduck scoring, intraocular pressure assessment (IOP), electroretinography (ERG), and systemic exposure were assessed up to 120 days post-dose. Animals were sacrificed at 30 minutes, 7 days, 30 days, 60 days, and 120 days for macroscopic observations, ocular toxicokinetics, and ocular histopathology.

[2] = Intraocular pressure after SCS TA (Example 9); format: in vivo, New Zealand White rabbit; conditions: 3.2 or 5.2 mg TA SCS
Description: In this study, the ocular tolerability and toxicokinetics of suprachoroidal administration of triamcinolone acetonide (TA) using a microneedle in a GLP study in the New Zealand White rabbit.
(§1) On Day 0, New Zealand White (NZW) rabbits were administered a single bilateral supraehoroidal injection of vehicle, 3.2 mg (80 μL) or 5.2 mg (130 μL) of TA (Triesence®, Alcoa labs) using a 33 g 750 μm microneedle. Clinical observations, slit lamp biomicroscopy with McDonald-Shadduck scoring, intraocular pressure assessment (IOP), electroretinography (ERG), and systemic exposure were assessed up to 26 weeks post-dose. Animals were sacrificed on Day 1, Week 13, and Week 26 for macroscopic observations, ocular toxicokinetics, and ocular histopathology.

[3] = Plasma and ocular matrix toxicokinetics after SCS TA, LC-MS/MS (Example 9); format: in vivo, New Zealand White rabbit
Description: as §1
Plasma and oct lar matrixes (aqueous humor (AH), lens, iris/ciliary body (ICB), vitreous humor (VH), sclera/choroid (SC), and retina) were sampled on Days 1, 14, 28, and 60. Plasma (LLOQ 0.5 ng/mL) and ocular matrixes (LLOQ 2-15 ng/mL) were analyzed using LC-MS/MS, and resulting data were assessed for noncompartmental PK parameters. Systemic exposure to TA was minimal (FIG. 20C).

[4] = Ocular and systemic pharmacokinetics of TA, SCS vs IVT (Example 10); format: in vivo, New Zealand White rabbit
Description: In this study, the ocular and systemic pharmacokinetics (PK) of triar cinolone acetonide (TA) in the New Zealand White rabbit following intravitreal […] injection or administration into the suprachoroidal space (SCS) using a hollow rnicroneedle were evaluated.
On Day 0, male rabbits (5 per group) received a single bilateral administration of 4 mg TA (100 μL Triesence triamcinolone formulationAlcon Labs) via SCS injection using a 33 g 750 μm microneedle or an IVT injection using a standard 30 g needle. The study design is shown below in Table 4.
Clinical observations, body weights, and intraocular pressure (IOP) were assessed up to 13 weeks post-dose. Plasma and ocular matrixes (aqueous humor (AH), lens, iris/ciliary body (ICB), vitreous humor (VH), sclera/choroid (SC), and retina) were sampled on Days 1, 14, 28, 56, and 91. Plasma (LLOQ 0.5 ng/mL) and ocular matrixes (LLOQ 2 -15 ng/mL) were analyzed using LC-MS/MS, and resulting data were assessed for noncompartmentat PK parameters.

CC1(C)O[C@@H]2C[C@H]3[C@@H]4CCC5=CC(=O)C=C[C@]5(C)[C@@]4(F)[C@@H](O)C[C@]3(C)[C@]2(C(=O)CO)O1 [TA, triamcinolone acetonide]
ratio of TA Lens:Chroroid and Lens:Retina [1]: much lower
effect on IOP [2]: No effect
systemic exposure to TA ([3]; 3.2 or 5.2 mg TA SCS, plasma): minimal
difference between TA levels in sclera/choroid and in the vitreous ([3]; SCS TA): 6 orders of magnitude
amount of TA retained in the retina, high dose vs low dose ([3]; by day 15, SCS): did not significantly differ
amount of TA retained in the sclera/choroid, high dose vs low dose ([3]; by day 30, SCS): did not significantly differ
order of TA in ocular matrixes (decreasing) ([3]; following SCS TA): SC>retina>ICB>VH>lens>AU
sclera/choroid tissue concentration of TA ([3]; for longer than 28 days after a single SCS dose): greater than 100 μg/g tissue
TA peak concentration in plasma ([3]; peaked on Day 1, both the high and low TA dose groups (5.2 and 3.2 mg SCS)): around 12 nglint
increase of AUC in VH, IVT TA compared with SCS TA ([4]; 4 mg TA): 52 fold
increase of AUC in aqueous Humor, IVT TA compared with SCS TA ([4]; 4 mg TA): 63 fold
increase of AUC in iris/ciliary body, IVT TA compared with SCS TA ([4]; 4 mg TA): 44 fold
increase of AUC in lens, IVT TA compared with SCS TA ([4]; 4 mg TA): 690 fold
increase of AUC in the sclera/choroid, SCS TA compared with IVT TA ([4]; 4 mg TA): 11 fold
increase of Cmax in VH, IVT TA compared with SCS TA ([4]; 4 mg TA): 4 fold
increase of Cmax in aqueous Humor, IVT TA compared with SCS TA ([4]; 4 mg TA): 250 fold
increase of Cmax in iris/ciliary body, IVT TA compared with SCS TA ([4]; 4 mg TA): 24 fold
increase of Cmax in lens, IVT TA compared with SCS TA ([4]; 4 mg TA): 290 fold
increase of Cmax in the sclera/choroid, SCS TA compared with IVT TA ([4]; 4 mg TA): 10 fold
AUC0-t ([4]; Aqueous Humor, IVT 4 mg TA): 8,500 ng · day/mL
Clast ([4]; Aqueous Humor, IVT 4 mg TA): 42 ng/mL
Cmax ([4]; Aqueous Humor, IVT 4 mg TA): 269 ng/mL
Tlast ([4]; Aqueous Humor, IVT 4 mg TA): 91 days
Tmax ([4]; Aqueous Humor, IVT 4 mg TA): 336 h
Clast ([4]; Aqueous Humor, SCS 4 mg TA): 16 ng/mL
Cmax ([4]; Aqueous Humor, SCS 4 mg TA): 16 ng/mL
Tlast ([4]; Aqueous Humor, SCS 4 mg TA): 28 days
AUC0-t ([4]; Iris/Ciliary body, IVT 4 mg TA): 40,900,000 ng · day/mL
Clast ([4]; Iris/Ciliary body, IVT 4 mg TA): 463,000 ng/mL
Cmax ([4]; Iris/Ciliary body, IVT 4 mg TA): 1,260,000 ng/mL
Tlast ([4]; Iris/Ciliary body, IVT 4 mg TA): 91 days
Tmax ([4]; Iris/Ciliary body, IVT 4 mg TA): 24 h
AUC0-t ([4]; Iris/Ciliary body, SCS 4 mg TA): 1,190,000 ng · day/mL
AUC0-∞ ([4]; Iris/Ciliary body, SCS 4 mg TA): 1,190,000 ng · day/mL
Clast ([4]; Iris/Ciliary body, SCS 4 mg TA): 247 ng/mL
Cmax ([4]; Iris/Ciliary body, SCS 4 mg TA): 50,200 ng/mL
T1/2 ([4]; Iris/Ciliary body, SCS 4 mg TA): 220 h
Tlast ([4]; Iris/Ciliary body, SCS 4 mg TA): 91 days
Tmax ([4]; Iris/Ciliary body, SCS 4 mg TA): 24 h
AUC0-t ([4]; Lens, IVT 4 mg TA): 12,600,000 ng · day/mL
Clast ([4]; Lens, IVT 4 mg TA): 40,300 ng/mL
Cmax ([4]; Lens, IVT 4 mg TA): 540,000 ng/mL
Tlast ([4]; Lens, IVT 4 mg TA): 91 days
Tmax ([4]; Lens, IVT 4 mg TA): 336 h
AUC0-t ([4]; Lens, SCS 4 mg TA): 27,400 ng · day/mL
Clast ([4]; Lens, SCS 4 mg TA): 9 ng/mL
Cmax ([4]; Lens, SCS 4 mg TA): 1,870 ng/mL
Tlast ([4]; Lens, SCS 4 mg TA): 91 days
Tmax ([4]; Lens, SCS 4 mg TA): 24 h
AUC0-t ([4]; Retina, IVT 4 mg TA): 25,100,000 ng · day/mL
AUC0-∞ ([4]; Retina, IVT 4 mg TA): 26,300,000 ng · day/mL
Clast ([4]; Retina, IVT 4 mg TA): 41,500 ng/mL
Cmax ([4]; Retina, IVT 4 mg TA): 781,000 ng/mL
T1/2 ([4]; Retina, IVT 4 mg TA): 504 h
Tlast ([4]; Retina, IVT 4 mg TA): 91 days
Tmax ([4]; Retina, IVT 4 mg TA): 336 h
AUC0-t ([4]; Retina, SCS 4 mg TA): 24,600,000 ng · day/mL
Clast ([4]; Retina, SCS 4 mg TA): 2,600 ng/mL
Cmax ([4]; Retina, SCS 4 mg TA): 907,000 ng/mL
Tlast ([4]; Retina, SCS 4 mg TA): 91 days
Tmax ([4]; Retina, SCS 4 mg TA): 24 h
quantifiability of TA in ocular matrixes ([4]; SCS and IVT, 4 mg TA): quantifiable in all ocular matrixes through Day 91
AUC0-t ([4]; Sclera/choroid, IVT 4 mg TA): 8,640,000 ng · day/mL
AUC0-∞ ([4]; Sclera/choroid, IVT 4 mg TA): 10,300,000 ng · day/mL
Clast ([4]; Sclera/choroid, IVT 4 mg TA): 27,100 ng/mL
Cmax ([4]; Sclera/choroid, IVT 4 mg TA): 235,000 ng/mL
T1/2 ([4]; Sclera/choroid, IVT 4 mg TA): 1030 h
Tlast ([4]; Sclera/choroid, IVT 4 mg TA): 91 days
Tmax ([4]; Sclera/choroid, IVT 4 mg TA): 336 h
AUC0-t ([4]; Sclera/choroid, SCS 4 mg TA): 101,000,000 ng · day/mL
AUC0-∞ ([4]; Sclera/choroid, SCS 4 mg TA): 101,000,000 ng · day/mL
Clast ([4]; Sclera/choroid, SCS 4 mg TA): 34,000 ng/mL
Cmax ([4]; Sclera/choroid, SCS 4 mg TA): 2,860,000 ng/mL
T1/2 ([4]; Sclera/choroid, SCS 4 mg TA): 264 h
Tlast ([4]; Sclera/choroid, SCS 4 mg TA): 91 days
Tmax ([4]; Sclera/choroid, SCS 4 mg TA): 24 h
AUC0-t ([4]; Vitreous Humor, IVT 4 mg TA): 77,600,000 ng · day/mL
AUC0-∞ ([4]; Vitreous Humor, IVT 4 mg TA): 85,500,000 ng · day/mL
Clast ([4]; Vitreous Humor, IVT 4 mg TA): 218,000 ng/mL
Cmax ([4]; Vitreous Humor, IVT 4 mg TA): 1,640,000 ng/mL
T1/2 ([4]; Vitreous Humor, IVT 4 mg TA): 600 h
Tlast ([4]; Vitreous Humor, IVT 4 mg TA): 91 days
Tmax ([4]; Vitreous Humor, IVT 4 mg TA): 24 h
AUC0-t ([4]; Vitreous Humor, SCS 4 mg TA): 3,460,000 ng · day/mL
Clast ([4]; Vitreous Humor, SCS 4 mg TA): 10 ng/mL
Cmax ([4]; Vitreous Humor, SCS 4 mg TA): 287,000 ng/mL
Tlast ([4]; Vitreous Humor, SCS 4 mg TA): 91 days
Tmax ([4]; Vitreous Humor, SCS 4 mg TA): 24 h
systemic exposure ([4]; either route (IVT or SCS), 4 mg TA): minimal
TA peak concentration in plasma ([4]; peaked on Day 1, both groups (SCS and IVT, 4 mg TA)): 4 ng/mL
